Laboratory results reported in US20250345329A1, “HETEROARYL DERIVATIVE COMPOUND AND USES THEREOF” (VORONOI, INC., priority 2022, published 2025).

Tested on: Ba/F3 expressing EGFR Del19/T790M/C797S mutations
Experiment: Inhibitory activity on proliferation of Ba/F3 cell overexpressing EGFR C797S (Cell Titer-Glo)
Assay type: cell-based
Settings: Mus musculus, BaF3; 72 hours treatment, cell growth rate vs control; read-out: Ba/F3 (EGFR DTC) GI50
Procedure: <Experimental Example 2> Evaluation of Inhibitory Activity on Proliferation of Ba/F3 Cell Overexpressing EGFR C797S
The following experiments were performed to evaluate the inhibitory activity of the compounds according to the present invention on the proliferation of Ba/F3 expressing EGFR Del19/T790M/C797S mutations.
Ba/F3 cells were cultured in RPMI-1640 medium supplemented with 10% fetal bovine serum (FBS), and 3000 cells were seeded into each well of a white clear bottom 96 well plate (Corning) 24 hours prior to compound treatment. The compounds were diluted in dimethyl sulfoxide (3-fold dilution, total of 12 concentrations) and injected at 1 μl each so that the final concentration was […] to 5 μM. After 72 hours post treatment with compounds, living cells were reacted in a 37° C., CO2 incubator for […], followed by 10 minutes at room temperature using Cell Titer-Glo luminescent cell-viability reagent (Promega), and the luminescence intensity thereof was measured using a reader (SynergyNeo2, Biotek). The result values were calculated as a cell growth rate (%) compared to the control group. GI50 values were calculated using the GraphPad Prism version 8.4.3 (GraphPad software Inc., San Diego) program.

| Compound | GI50 |
| --- | --- |
| CO[C@H]1CCN(c2nccc(Nc3cc(NC(C)C)c(C(=O)Nc4cnn(S(=O)(=O)C5CC5)c4)cn3)n2)C[C@H]1F [Example 33, N-(1-(cyclopropylsulfonyl)-1H-pyrazol-4-yl)-6-((2-(cis-3-fluoro-4-methoxypiperidin-1-yl)pyrimidin-4-yl)amino)-4-(isopropylamino)nico-tinamide] | 500 to 5000 nM |
| CO[C@H]1CCN(c2cc(Nc3ncc(C(=O)NCCS(C)(=O)=O)c(NC(C)C)n3)ccn2)C[C@H]1F [Example 95, 2-((2-((3R,4S)-3-fluoro-4-methoxypiperidin-1-yl)pyridin-4-yl)amino)-4-(isopropylamino)-N-(2-(methylsulfonyl)ethyl) pyrimidin-5-carboxamide] | 500 to 5000 nM |
| CC(C)Nc1cc(Nc2ccnc(-c3ccc(O)c(C=O)c3)n2)ncc1C(=O)N1C[C@H](CS(C)(=O)=O)[C@H]1C [Example 133, 2-hydroxy-5-(4-((4-(isopropylamino)-5-((2R,3S)-2-methyl-3-((methyl-sulfonyl)meth-yl)azetidine-1-carbonyl)pyridin-2-yl)amino)pyrimidin-2-yl)benzaldehyde] | 500 to 5000 nM |
| CC(=O)c1cc(-c2nccc(Nc3cc(NC(C)C)c(C(=O)N4C[C@H](CS(C)(=O)=O)[C@H]4C)cn3)n2)ccc1O [Example 134, 1-(2-hydroxy-5-(4-((4-(isopropylamino)-5-((2R,3S)-2-methyl-3-((methylsulfonyl)meth-yl)azetidine-1-carbonyl)pyridin-2-yl)amino)pyrimidin-2-yl)phenyl)ethan-1-one] | 500 to 5000 nM |
| CO[C@H]1CCN(c2cc(Nc3ncc(C(=O)NCCCC(F)(F)F)c(NC(C)C)n3)ccn2)C[C@H]1F [Example 93, 2-((2-((3R,4S)-3-fluoro-4-methoxypiperidin-1-yl)pyridin-4-yl)amino)-4-(isopropylamino)-N-(4,4,4-trifluorobutyl)pyrimi-dine-5-carboxamide] | 500 to 5000 nM |
| C[C@H]1CCOc2c(cnn2C)-c2nccc(n2)Nc2cc(c(C(=O)Nc3cccc(CS(C)(=O)=O)c3)cn2)N1 [Example 125, (S)-1^1,6-dimethyl-N-(3-((methyl-sulfonyl)meth-yl)phenyl)-1^1H-9-oxa-3,5-diaza-2(2,4)-pyrimidina-4(2,4)-pyridina-1(4,5)-pyrazolacyclo-nonaphane-4^5-carboxamide] | 500 to 5000 nM |
| CO[C@@H]1CCN(c2nccc(Nc3cc(NC(C)C)c(C(=O)N4CC(CS(=O)(=O)C(C)C)C4)cn3)n2)C[C@@H]1F [Example 131, (6-((2-(cis-3-fluoro-4-methoxypiperidin-1-yl)pyrimidin-4-yl)amino)-4-(isopropylamino)pyri-din-3-yl)(3-((isopropylsulfonyl)methyl)azetidin-1-yl)methanone] | 500 to 5000 nM |
| CO[C@H]1CCN(c2nccc(Nc3cc(NC(C)C)c(C(=O)Nc4cc(N5CCN(C)CC5)cc(C(F)(F)F)c4)cn3)n2)C[C@H]1F [Example 24, 6-((2-(cis-3-fluoro-4-methoxypiperidin-1-yl)pyrimidin-4-yl)amino)-4-(isopropylamino)-N-(3-(4-methylpiperazin-1-yl)-5-(trifluoromethyl)phe-nyl)nicotinamide] | 500 to 5000 nM |
| C[C@H]1CCOc2c(cnn2C)-c2nccc(n2)Nc2cc(c(C(=O)NCCC(F)(F)F)cn2)N1 [Example 89, (S)-1^1,6-dimethyl-N-(3,3,3-trifluoropropyl)-1^1H-9-oxa-3,5-diaza-2(2,4)-pyrimidina-4(2,4)-pyridina-1(4,5)-pyrazolacyclo-nonaphane-4^5-carboxamide] | < 500 nM |
| C[C@H]1CCOc2c(cnn2C)-c2cc(ccn2)Nc2cc(c(C(=O)NCCC(F)(F)F)cn2)N1 [Example 123, (S)-1^1,6-dimethyl-N-(3,3,3-trifluoropropyl)-1^1H-9-oxa-3,5-diaza-2,4(2,4)-dipyridina-1(4,5)-pyrazolacyclo-nonaphane-4^5-carboxamide] | < 500 nM |
| CC(C)Nc1nc(Nc2ccnc(-c3cnn(S(=O)(=O)C4CC4)c3)c2)ncc1C(=O)NCCCC(F)(F)F [Example 92, 2-((2-(1-(cyclopropylsulfonyl)-1H-pyrazol-4-yl)pyridin-4-yl)amino)-4-(isopropylamino)-N-(4,4,4-trifluorobutyl)pyrimi-din-5-carboxamide] | 500 to 5000 nM |
| CC(C)Nc1cc(Nc2ccnc(-c3cnn(C(=O)C4CC4)c3)n2)ncc1C(=O)NCC#N [Example 87, N-(cyanomethyl)-6-((2-(1-(cyclo-propanecarbonyl)-1H-pyrazol-4-yl)pyrimidin-4-yl)amino)-4-(isopropylamino)nico-tinamide] | 500 to 5000 nM |
| Cc1cc2cc(n1)-c1cnn(C)c1OCC[C@H](C)Nc1cc(ncc1C(=O)NCCC(F)(F)F)N2 [Example 124, (S)-1^1,2^6,6-trimethyl-N-(3,3,3-trifluoropropyl)-1^1H-9-oxa-3,5-diaza-2,4(2,4)-dipyridina-1(4,5)-pyrazolacyclo-nonaphane-4^5-carboxamide] | 500 to 5000 nM |
| CO[C@H]1CCN(c2nccc(Nc3cc(NC(C)C)c(C(=O)N(C)CCN(C)C)cn3)n2)C[C@H]1F (relative stereo) [Example 29, N-(2-(dimethylamino)ethyl)-6-((2-(cis-3-fluoro-4-methoxypiperidin-1-yl)pyrimidin-4-yl)amino)-4-(isopropylamino)-N-methylnicotinamide] | 500 to 5000 nM |
| CC(C)Nc1cc(Nc2ccnc(-c3cnn(S(=O)(=O)C4CC4)c3)n2)ncc1C(=O)NC[C@@H](F)C(C)(C)O [Example 132, (R)-6-((2-(1-(cyclopropylsulfonyl)-1H-pyrazol-4-yl)pyrimidin-4-yl)amino)-N-(2-fluoro-3-hydroxy-3-methylbutyl)-4-(isopropylamino)nico-tinamide] | < 500 nM |
| C[C@H]1CCOc2c(cnn2C)-c2nccc(n2)Nc2cc(c(C(=O)NCC(F)(F)C(F)(F)F)cn2)N1 [Example 103, (S)-1^1,6-dimethyl-N-(2,2,3,3,3-pentafluoropropyl)-1^1H-9-oxa-3,5-diaza-2(2,4)-pyrimidina-4(2,4)-pyridina-1(4.,5)-pyrazolacyclo-nonaphane-4^5-carboxamide] | < 500 nM |
| COCCN(C)C(=O)c1cnc(Nc2ccnc(-c3cnn(S(=O)(=O)C4CC4)c3)n2)cc1NC(C)C [Example 27, 6-((2-(1-(cyclopropylsulfonyl)-1H-pyrazol-4-yl)pyrimidin-4-yl)amino)-4-(isopropylamino)-N-(2-methoxyethyl)-N-methylnicotinamide] | 500 to 5000 nM |
| C[C@H]1CCOc2c(cnn2C)-c2nccc(n2)Nc2cc(c(C(=O)NCCCC(F)(F)F)cn2)N1 [Example 88, (S)-1^1,6-dimethyl-N-(4,4,4-trifluorobutyl)-1^1H-9-oxa-3,5-diaza-2(2,4)-pyrimidina-4(2,4)-pyridina-1(4,5)-pyrazolacyclo-nonaphane-4^5-carboxamide] | < 500 nM |
| CO[C@H]1CCN(c2nccc(Nc3cc(NC(C)C)c(C(=O)NCC4CCCC4)cn3)n2)C[C@H]1F [Example 91, N-(cyclopentylmethyl)-6-((2-(cis-3-fluoro-4-methoxypiperidin-1-yl)pyrimidin-4-yl)amino)-4-(isopropylamino)nico-tinamide] | 500 to 5000 nM |
| COCCN(C)C(=O)c1cnc(Nc2ccnc(N3CC[C@H](OC)[C@H](F)C3)n2)cc1NC(C)C (relative stereo) [Example 30, 6-((2-(cis-3-fluoro-4-methoxypiperidin-1-yl)pyrimidin-4-yl)amino)-4-(isopropylamino)-N-(2-methoxyethyl)-N-methylnicotinamide] | 500 to 5000 nM |
| C[C@H]1CCOc2c(cnn2C)-c2nccc(n2)Nc2cc(c(C(=O)Nc3cc(N4CCN(C)CC4)cc(N(C)S(C)(=O)=O)c3)cn2)N1 [Example 114, (S)-1^1,6-dimethyl-N-(3-(N-methyl-methylsulfonami-do)-5-(4-methylpiperazin-1-yl)phenyl)-1^1H-9-oxa-3,5-diaza-2(2,4)-pyrimidina-4(2,4)-pyridina-1(4,5)-pyrazolacyclo-nonaphane-4^5-carboxamide] | < 500 nM |
| CO[C@H]1CCN(c2nccc(Nc3cc(NC(C)C)c(C(=O)NCCS(C)(=O)=O)cn3)n2)C[C@H]1F [Example 94, 6-((2-((3R,4S)-3-fluoro-4-methoxypiperidin-1-yl)pyrimidin-4-yl)amino)-4-(isopropylamino)-N-(2-(methylsulfonyl)ethyl) nicotinamide] | 500 to 5000 nM |
| CC(C)S(=O)(=O)CC1CN(C(=O)c2cnc3cc2N[C@@H](C)CCOc2c(cnn2C)-c2nccc(n2)N3)C1 [Example 121, (S)-(1^1,6-methyl-1^1H-9-oxa-3,5-diaza-2(2,4)-pyrimidina-4(2,4)-pyridina-1(4,5)-pyrazolacyclo-nonaphane-4^5-yl)(3-((isopropylsulfonyl)methyl)azetidin-1-yl)methanone] | < 500 nM |
| CC(C)Nc1cc(Nc2ccnc(-c3cnn(S(=O)(=O)C4CC4)c3)n2)ncc1C(=O)N1CC(CS(=O)(=O)C(C)C)C1 [Example 130, (6-((2-(1-(cyclopropylsulfonyl)-1H-pyrazol-4-yl)pyrimidin-4-yl)amino)-4-(isopropylamino)pyri-din-3-yl)(3-((isopropylsulfonyl)methyl)azetidin-1-yl)methanone] | < 500 nM |
